Laboratory results published in the Kinase Knowledgebase extract (Sharma et al. 2016).

molecular target: MAPK14 (UniProt Q16539); assay: Inhibition of MAPK14 Kinase Activity
Sequence (Q16539 whole entry, looked up): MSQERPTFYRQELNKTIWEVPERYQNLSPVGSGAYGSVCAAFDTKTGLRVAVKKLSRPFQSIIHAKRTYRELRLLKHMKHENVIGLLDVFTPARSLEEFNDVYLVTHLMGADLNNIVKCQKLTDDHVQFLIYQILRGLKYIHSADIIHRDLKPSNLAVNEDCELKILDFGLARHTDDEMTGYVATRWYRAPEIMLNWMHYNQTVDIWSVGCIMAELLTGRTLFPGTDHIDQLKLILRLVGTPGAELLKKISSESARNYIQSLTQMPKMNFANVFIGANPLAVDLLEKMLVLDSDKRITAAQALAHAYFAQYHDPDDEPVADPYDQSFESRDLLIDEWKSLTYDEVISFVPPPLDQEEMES

IC50, < 10 µM:
Cc1ccc(C(=O)NC2CC2)cc1-c1ccc2c(CN3CCCC3)noc2c1, COc1cccc(S(=O)(=O)n2ncc3cc(-c4cc(C(=O)NC5CC5)cc(F)c4C)ccc32)c1, Cc1c(F)cc(C(=O)NC2CC2)cc1-c1ccc2c(cnn2CC(=O)N2CCOCC2)c1, CCS(=O)(=O)n1ncc2cc(-c3cc(C(=O)NC4CC4)ccc3C)ccc21, Cc1ccc(C(=O)NC2CC2)cc1-c1ccc2c(C3CCNCC3)noc2c1, Cc1ccc(C(=O)Nc2cccc(N3CCOCC3)c2)cc1-c1ccc2c(C)noc2c1, Cc1ccc(NC(=O)c2ccoc2)cc1-c1ccc2c(C3CCNCC3)noc2c1, Cc1ccc(NC(=O)c2ccnc(N3CCCC3)c2)cc1-c1ccc2c(C3CCNCC3)noc2c1, Cc1ccccc1S(=O)(=O)n1ncc2cc(-c3cc(C(=O)NC4CC4)cc(F)c3C)ccc21, Cc1ccc(NC(=O)c2ccsc2)cc1-c1ccc2c(C3CCNCC3)noc2c1, Cc1ccc(C(=O)NC2CC2)cc1-c1ccc2c(cnn2S(=O)(=O)c2c(C)nn(C)c2C)c1, Cc1ccc(C(=O)NC2CC2)cc1-c1ccc2c(cnn2S(=O)(=O)c2c(C)noc2C)c1, Cc1c(F)cc(C(=O)NC2CC2)cc1-c1ccc2c(cnn2S(=O)(=O)C(C)C)c1, CCCCCCCCS(=O)(=O)n1ncc2cc(-c3cc(C(=O)NC4CC4)cc(F)c3C)ccc21, Cc1ccc(C(=O)Nc2nccs2)cc1-c1ccc2c(C3CCNCC3)noc2c1, Cc1c(F)cc(C(=O)NC2CC2)cc1-c1ccc2c(cnn2S(=O)(=O)c2ccccc2)c1, Cc1ccc(C(=O)NC2CC2)cc1-c1ccc2c(cnn2CC(=O)NCC(C)(C)C)c1, Cc1c(F)cc(C(=O)NC2CC2)cc1-c1ccc2c(c1)c(C)nn2S(=O)(=O)c1cccs1, Cc1ccc(C(=O)NC2CC2)cc1-c1ccc2c(cnn2S(=O)(=O)c2ccccc2[N+](=O)[O-])c1, Cc1c(F)cc(C(=O)NC2CC2)cc1-c1ccc2c(cnn2S(=O)(=O)c2cccc(Cl)c2)c1, CCCNC(=O)c1noc2cc(-c3cc(C(=O)NC4CC4)cc(F)c3C)ccc12, COc1ccc(S(=O)(=O)n2ncc3cc(-c4cc(C(=O)NC5CC5)cc(F)c4C)ccc32)cc1, Cc1ccc(S(=O)(=O)n2ccc3cc(-c4cc(C(=O)NC5CC5)cc(F)c4C)ccc32)cc1, Cc1c(F)cc(C(=O)NC2CC2)cc1-c1ccc2c(cnn2S(=O)(=O)c2ccc(C(C)C)cc2)c1, CCCCc1ccc(S(=O)(=O)n2ncc3cc(-c4cc(C(=O)NC5CC5)cc(F)c4C)ccc32)cc1, Cc1c(F)cc(C(=O)NC2CC2)cc1-c1ccc2c(C(=O)N(C)C)noc2c1, Cc1ccc(F)cc1S(=O)(=O)n1ncc2cc(-c3cc(C(=O)NC4CC4)cc(F)c3C)ccc21, Cc1ccc(C(=O)NC2CC2)cc1-c1ccc2c(cnn2CC(=O)NC(C)C)c1, Cc1c(F)cc(C(=O)NC2CC2)cc1-c1ccc2c(cnn2S(=O)(=O)C2CC2)c1, Cc1c(F)cc(C(=O)NC2CC2)cc1-c1ccc2c(cnn2S(=O)(=O)c2cccc(F)c2)c1, Cc1ccc(C(=O)NC2CC2)cc1-c1ccc2c(cnn2CC(=O)NCc2ccccc2)c1, Cc1ccc(C(=O)NC2CC2)cc1-c1ccc2c(CC(=O)N3CCOCC3)noc2c1, Cc1c(F)cc(C(=O)NC2CC2)cc1-c1ccc2c(cnn2S(=O)(=O)c2ccc(Cl)s2)c1, Cc1c(F)cc(C(=O)NC2CC2)cc1-c1ccc2c(cnn2S(=O)(=O)c2ccc(Cl)cc2)c1, Cc1ccc(C(=O)NC2CC2)cc1-c1ccc2c(cnn2S(=O)(=O)c2ccc(-c3ccon3)s2)c1, Cc1ccc(C(=O)NC2CC2)cc1-c1ccc2c(CC(=O)N3CCNCC3)noc2c1, Cc1c(F)cc(C(=O)NC2CC2)cc1-c1ccc2c(C(=O)NCC3CC3)noc2c1, Cc1ccc(C(=O)NC2CC2)cc1-c1ccc2c(cnn2S(=O)(=O)c2ccccc2F)c1, Cc1c(F)cc(C(=O)NC2CC2)cc1-c1ccc2c(cnn2S(=O)(=O)Cc2ccccc2)c1, Cc1ccc(S(=O)(=O)n2ncc3cc(-c4cc(C(=O)NC5CC5)cc(F)c4C)ccc32)cc1, Cc1c(F)cc(C(=O)NC2CC2)cc1-c1ccc2c(cnn2S(=O)(=O)c2ccccc2F)c1, Cc1ccc(C(=O)NC2CC2)cc1-c1ccc2c(CC(=O)N3CCCCC3)noc2c1, Cc1c(F)cc(C(=O)NC2CC2)cc1-c1ccc2c(cnn2S(=O)(=O)c2cc(F)ccc2F)c1, Cc1c(F)cc(C(=O)NC2CC2)cc1-c1ccc2c(cnn2S(=O)(=O)c2ccc(F)c(F)c2)c1, Cc1ccc(C(=O)NC2CC2)cc1-c1ccc2c(CN3CCOCC3)noc2c1, Cc1ccc(C(=O)NC2CC2)cc1-c1ccc2c(cnn2CC(=O)N2CCOCC2)c1, Cc1c(F)cc(C(=O)NC2CC2)cc1-c1ccc2c(cnn2S(=O)(=O)c2ccc(C#N)cc2)c1, Cc1ccc(C(=O)NC2CC2)cc1-c1ccc2c(cnn2S(=O)(=O)C(C)C)c1, Cc1c(F)cc(C(=O)NC2CC2)cc1-c1ccc2c(ccn2S(=O)(=O)c2ccccc2)c1, CNC(=O)c1ccc(CNC(=O)Cn2ncc3cc(-c4cc(C(=O)NC5CC5)cc(F)c4C)ccc32)cc1, Cc1ccc(C(=O)NC2CC2)cc1-c1ccc2c(CNC(CO)CO)noc2c1, Cc1c(F)cc(C(=O)NC2CC2)cc1-c1ccc2c(cnn2S(=O)(=O)c2cccs2)c1, Cc1ccc(C(=O)NC2CC2)cc1-c1ccc2c(cnn2S(=O)(=O)C2CC2)c1, Cc1ccc(C(=O)NC2CC2)cc1-c1ccc2c(CC(=O)NC3CC3)noc2c1, CNC(=O)Cc1noc2cc(-c3cc(C(=O)NC4CC4)ccc3C)ccc12, Cc1c(F)cc(C(=O)NC2CC2)cc1-c1ccc2c(cnn2S(=O)(=O)c2ccc(F)cc2F)c1, Cc1ccc(C(=O)NC2CC2)cc1-c1ccc2c(cnn2C2CCNCC2)c1, Cc1ccc(C(=O)NC2CC2)cc1-c1ccc2c(CC(=O)Nc3nccs3)noc2c1, Cc1c(F)cc(C(=O)NC2CC2)cc1-c1ccc2c(cnn2S(C)(=O)=O)c1, Cc1ccc(C(=O)NC2CC2)cc1-c1ccc2c(cnn2CC2CC2)c1, Cc1ccc(C(=O)NC2CC2)cc1-c1ccc2c(cnn2S(=O)(=O)c2cccs2)c1, Cc1ccc(NC(=O)c2ccsc2)cc1-c1ccc2c(C)noc2c1, Cc1ccc(C(=O)NC2CC2)cc1-c1ccc2c(cnn2S(=O)(=O)c2ccc(F)c(F)c2)c1, Cc1c(F)cc(C(=O)NC2CC2)cc1-c1ccc2c(C(=O)NC3CC3)noc2c1, CCCNC(=O)Cn1ncc2cc(-c3cc(C(=O)NC4CC4)ccc3C)ccc21, Cc1ccc(C(=O)NC2CC2)cc1-c1ccc2c(cnn2S(=O)(=O)Cc2ccccc2)c1, Cc1ccc(C(=O)NC2CC2)cc1-c1ccc2c(cnn2S(=O)(=O)c2cccc(F)c2)c1, CCCc1ccc(S(=O)(=O)n2ncc3cc(-c4cc(C(=O)NC5CC5)cc(F)c4C)ccc32)cc1, Cc1c(F)cc(C(=O)NC2CC2)cc1-c1ccc2c(S(C)(=O)=O)n[nH]c2c1, Cc1ccc(C(=O)NCC2CC2)cc1-c1ccc2c(C3CCNCC3)noc2c1, Cc1c(F)cc(C(=O)NC2CC2)cc1-c1ccc2c(cnn2S(=O)(=O)c2cn(C)c(C)n2)c1, Cc1c(F)cc(C(=O)NC2CC2)cc1-c1ccc2c(cnn2S(=O)(=O)/C=C/c2ccccc2)c1, Cc1noc(C)c1S(=O)(=O)n1ncc2cc(-c3cc(C(=O)NC4CC4)cc(F)c3C)ccc21, Cc1c(F)cc(C(=O)NC2CC2)cc1-c1ccc2c(cnn2S(=O)(=O)c2ccccc2Cl)c1, CCS(=O)(=O)n1ncc2cc(-c3cc(C(=O)NC4CC4)cc(F)c3C)ccc21, COC(=O)c1ccc(CS(=O)(=O)n2ncc3cc(-c4cc(C(=O)NC5CC5)ccc4C)ccc32)cc1, CCNC(=O)Cc1noc2cc(-c3cc(C(=O)NC4CC4)ccc3C)ccc12, CCCS(=O)(=O)n1ncc2cc(-c3cc(C(=O)NC4CC4)cc(F)c3C)ccc21, Cc1ccc(C(=O)NC2CC2)cc1-c1ccc2c(cnn2S(=O)(=O)c2ccc(F)cc2)c1, Cc1ccc(C(=O)NC2CC2)cc1-c1ccc2c(cnn2S(=O)(=O)c2ccc3c(c2)CCO3)c1, Cc1ccc(C(=O)NC2CC2)cc1-c1ccc2c(cnn2S(C)(=O)=O)c1, Cc1ccc(C(=O)Nc2cccc(N3CCOCC3)c2)cc1-c1ccc2c(C3CCNCC3)noc2c1, COc1cccc(CNC(=O)Cc2noc3cc(-c4cc(C(=O)NC5CC5)ccc4C)ccc23)c1, CCCCS(=O)(=O)n1ncc2cc(-c3cc(C(=O)NC4CC4)cc(F)c3C)ccc21, Cc1c(F)cc(C(=O)NC2CC2)cc1-c1ccc2c(NC3CC3)noc2c1
